According to patent publication US20220280526A1, “AGENT FOR THE TREATMENT OF PSORIASIS” (EBERHARD KARLS UNIVERSITAET TUEBINGEN MEDIZINISCHE FAKULTAET, priority 2019, published 2022):

Experiments:
[1] = test system: IMQ-induced psoriasis-like skin inflammation; test: Imiquimod (IMQ)-mediated psoriasis mouse model, topical treatment of ears; assay type: in vivo, C57BL/6 mice
Method: Experiments were conducted in accordance with the German law guidelines of animal care. […] At day 7, mice were sacrificed and analysed. For IL-36α-mediated psoriasis induction, ears of male C57BL/6 mice (8-12 weeks old) were treated by intradermal injections using 1 μg murine IL-36α (aa 8-160, R&D) or PBS control for 5 consecutive days. […] Inhibitors were topically applicated 6 h before intradermal injections of IL-36α or PBS were applied. Mice were sacrificed and analysed at day 6.
Sample preparation was performed as described. The following anti-mouse antibodies from BioLegend were used: anti-CD45 FITC (103107), anti-CD11 b PacificBlue (101223), anti-Ly6G PE (127607), anti-F4/80 APC (123115), anti-CD11c Pacific Blue (117322), anti-MHC-II APC (107613), anti-CD172α PE (144011) and anti-Silec-H PE (129605). Anti-PDCA-1 APC (17-2092-80) and anti-αβTCR PE (HM3628) were purchased from Invitrogen, and anti-γδ-TCR APC (17-5711-82) from Sigma. Data was acquired on a LSRII flow cytometer (Becton Dickson).
Ear sections from mice were fixed in 10% formalin (Carl Roth) and subsequently embedded in paraffin. 5-μm sections were prepared and incubated with the following antibodies from Cell Signaling: pSTAT3 (9145), pRB (8516) and H3K27me3 (9733). For staining of human skin samples, EZH2 antibody (Cell Signaling, 5246) was used. Antigen retrieval was performed in 1 mM EDTA pH 8.0 for pSTAT3, and 10 mM citrate buffer pH 6.0+0.5% Triton X-100 for EZH2, H3K27me3 and pRB. After incubation with peroxidase-coupled secondary antibodies, sections were stained with DAB substrate.

[2] = test system: IL-36-mediated psoriasis-like dermatitis; test: IL-36α-triggered psoriasis-like dermatitis mouse model, topical treatment of ears; assay type: in vivo, C57BL/6 mice
Method: Experiments were conducted in accordance with the German law guidelines of animal care. […] At day 7, mice were sacrificed and analysed. For IL-36α-mediated psoriasis induction, ears of male C57BL/6 mice (8-12 weeks old) were treated by intradermal injections using 1 μg murine IL-36α (aa 8-160, R&D) or PBS control for 5 consecutive days. […] Inhibitors were topically applicated 6 h before intradermal injections of IL-36α or PBS were applied. Mice were sacrificed and analysed at day 6. Ear sections from mice were fixed in 10% formalin (Carl Roth) and subsequently embedded in paraffin. 5-μm sections were prepared and incubated with the following antibodies from Cell Signaling: pSTAT3 (9145), pRB (8516) and H3K27me3 (9733). For staining of human skin samples, EZH2 antibody (Cell Signaling, 5246) was used. Antigen retrieval was performed in 1 mM EDTA pH 8.0 for pSTAT3, and 10 mM citrate buffer pH 6.0+0.5% Triton X-100 for EZH2, H3K27me3 and pRB. After incubation with peroxidase-coupled secondary antibodies, sections were stained with DAB substrate.

[3] = flow cytometry of ears at day 7

## Abemaciclib mesylate
[1]; ear skin sections of treated mice
  pRB expression in the epidermis (CDK4/6 inhibition): loss of pRB
[1]; [3]
  immune cell infiltration (neutrophils, macrophages, T cells): significantly suppressed
  number of infiltrating plasmacytoid (pDC) and myeloid dendritic cells (mDC): significantly suppressed
[1]; immunoblot of skin tissue at day 7
  IκBζ expression, phosphorylation of EZH2 at T345 and of STAT3 at Y705 in the skin: completely abrogated
[1]; qPCR of skin samples at day 7
  expression of IκBζ target genes (Cxcl2, Cxcl5) and cytokines (Il17a, Il23a) in skin: significantly downregulated
[1]; topical daily for 6 days with IMQ, abemaciclib 0.02 mg, CPI-169 0.05 mg per ear/day, analysed day 7
  psoriasis-like skin inflammation (ear thickening, keratinocyte hyperproliferation, immune cell infiltration): completely suppressed
[1]; topical on mouse ear skin
  skin penetration of topically applied inhibitor: effectively penetrated
[2]; immunoblot of ear skin at day 6
  IL-36-mediated expression of IκBζ, phosphorylation of EZH2 at T345 and activation of STAT3 (pSTAT3 Y705) in skin: suppressed
[2]; intradermal IL-36α 5 days, topical inhibitor, abemaciclib 0.02 mg, CPI-169 0.05 mg, day 6
  keratinocyte hyperproliferation and immune cell infiltration: effectively blocked
[2]; qPCR of skin samples
  IκBζ target gene expression and key cytokine expression (Il17a, Il23a): effectively blocked
